Results as given in US7888331B2, “Ganglioside compositions and methods of use” (Seneb Biosciences, Inc., priority 2003, dated 2011).

Test system: mouse cortical cells
Assay: Protection of cortical cells from apoptosis (hydrogen peroxide, MTT)
Type: cell-based
Settings: approx. 0.1 μM, 50 μM hydrogen peroxide
Experimental: To induce apoptosis, mouse cortical cells were cultured and treated with 50 μM hydrogen peroxide for three hours prior to being treated with the ganglioside analogue. The cells were also treated with the hydrogen peroxide during treatment with the ganglioside analogue and post-treatment for 48 h. Cell death was assayed using the MTT assay.

## LIGA-20
  protection of the cells from apoptosis: approximately 20%
